Here are results for three molecules from ChEMBL document CHEMBL1142548, “Time-dependent intracellular trafficking of FITC-conjugated epigallocatechin-3-O-gallate in L-929 cells” (Bioorg Med Chem, 2008).

The test system of this assay is L1210. In words: Cytotoxicity against mouse L1210 cells after 24 hrs by WST8 assay. It is filed as functional, cell-based. The settings on record: L1210, 24 h. For orientation: Tetrazolium assays rely on reduction of a dye to a coloured formazan, in cell work by metabolically active cells.
One may read the IC50 as the concentration that inhibits the measured activity by half. A lower IC50 goes with greater potency in that assay. The molecule `O=C(O[C@@H]1Cc2c(O)cc(O)cc2O[C@@H]1c1cc(O)c(O)c(O)c1)c1cc(O)c(O)c(OC(=S)Nc2ccc3c(c2)C(=O)OC32c3ccc(O)cc3Oc3cc(O)ccc32)c1` yielded an IC50 of no less than 325 µM.

The molecule `O=C(O[C@@H]1Cc2c(O)cc(O)cc2O[C@@H]1c1cc(O)c(O)c(O)c1)c1cc(O)c(O)c(O)c1` [EPIGALOCATECHIN GALLATE] gave an IC50 of 690 µM.

On to `O=C1OC2(c3ccc(O)cc3Oc3cc(O)ccc32)c2ccc(N=C=S)cc21`, for which half-maximal inhibition (IC50) required 700 µM.
